Measurements from patent US20250195513A1, “DEGRADATION OF IRAK4 BY CONJUGATION OF IRAK4 INHIBITORS WITH E3 LIGASE LIGAND AND METHODS OF USE” (BeiGene, Ltd., priority 2022, published 2025).
Like-named read-outs stand apart in the source and are kept apart here.

Target: T1, IRAK4 (Homo sapiens, UniProt Q9NWZ3)
T1 construct: endogenous in cells; host or cells: Karpas299
T1 sequence (Q9NWZ3 1-460): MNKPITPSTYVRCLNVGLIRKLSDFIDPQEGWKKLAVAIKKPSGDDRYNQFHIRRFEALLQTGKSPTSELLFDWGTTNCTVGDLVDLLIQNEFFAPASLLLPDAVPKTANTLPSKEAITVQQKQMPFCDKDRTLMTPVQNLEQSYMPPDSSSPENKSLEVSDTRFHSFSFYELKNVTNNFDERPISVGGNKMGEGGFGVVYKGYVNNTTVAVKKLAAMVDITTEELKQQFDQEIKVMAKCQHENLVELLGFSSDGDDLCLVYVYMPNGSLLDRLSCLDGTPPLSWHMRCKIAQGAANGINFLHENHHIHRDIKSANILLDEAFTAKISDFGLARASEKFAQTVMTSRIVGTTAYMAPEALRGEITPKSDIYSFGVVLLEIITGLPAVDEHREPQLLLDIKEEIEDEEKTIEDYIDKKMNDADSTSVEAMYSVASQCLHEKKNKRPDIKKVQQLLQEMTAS
Test: IRAK4 Degradation Assay (Karpas299, HTRF/TR-FRET)
Assay type: cell-based
Summary of the method: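 Compound potency as DC50 (IC50) came from four-parameter fits of percent IRAK4 degradation. IRAK4 was measured by HTRF (665/620 nm) in lysates of Karpas299 cells seeded at 0.2 million per well. Cells had been treated with compound dilutions for 5 or 24 h.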

[1] = Karpas-299 cells, 24 h treatment, maximum percentage of degradation, read-out: IRAK4 in Karpas-299 (24 h) Dmax (%)
[2] = Karpas-299 cells, 24 h treatment, read-out: IRAK4 in Karpas-299 (24 h) DC50
[3] = Karpas-299 cells, 5 h treatment, maximum percentage of degradation, read-out: IRAK4 in Karpas-299 (5 h) Dmax (%)
[4] = Karpas-299 cells, 5 h treatment, read-out: IRAK4 in Karpas-299 (5 h) DC50

| DC50 (Degradation (Karpas-299), comparison table, Linker Type A, read-out: Compound (Linker Type A) DC50) | Dmax (Degradation (Karpas-299), comparison table, Linker Type A, read-out: Compound (Linker Type A) Dmax (%)) | Dmax [1] | DC50 [2] | Dmax [3] | DC50 [4] | SMILES |
| --- | --- | --- | --- | --- | --- | --- |
| – | – | 96% | 4.8 nM | – | – | CC(C)(O)c1cc2nn(C3CCN([C@H]4CCN(CC5CN(c6cc(F)c([C@H]7CCC(=O)NC7=O)c(F)c6)C5)CC4(F)F)CC3)cc2cc1NC(=O)c1ccc2cc(C#N)cnn12 [Example 197, 3-cyano-N-(2-((S)-1′-((1-(4-((R)-2,6-dioxopiperidin-3-yl)-3,5-difluorophenyl)azetidin-3-yl)methyl)-3′,3′-difluoro-[1,4′-bipiperidin]-4-yl)-6-(2-hydroxypropan-2-yl)-2H-indazol-5-yl)pyrrolo[1,2-b]pyridazine-7-carboxamide] |
| – | – | 42% | > 1000 nM | – | – | N#Cc1cnc2c(C(=O)Nc3ccc4nn([C@H]5CC[C@H](N6CCN(C7CN(c8cc(F)c([C@H]9CCC(=O)NC9=O)c(F)c8)C7)CC6)CC5)cc4c3)cnn2c1 [Example 424, 6-cyano-N-(2-((1R,4r)-4-(4-(1-(4-((R)-2,6-dioxopiperidin-3-yl)-3,5-difluorophenyl)azetidin-3-yl)piperazin-1-yl)cyclohexyl)-2H-indazol-5-yl)pyrazolo[1,5-a]pyrimidine-3-carboxamide] |
| – | – | 94% | 1.9 nM | – | – | CC(C)(O)c1cc2nn(C3CCN([C@H]4CCN(C(=O)C5CN(c6cc(F)c([C@H]7CCC(=O)NC7=O)c(F)c6)C5)CC4(F)F)CC3)cc2cc1NC(=O)c1ccc2cc(C#N)cnn12 [Example 287, 3-cyano-N-(2-((S)-1′-(1-(4-((R)-2,6-dioxopiperidin-3-yl)-3,5-difluorophenyl)azetidine-3-carbonyl)-3′,3′-difluoro-[1,4′-bipiperidin]-4-yl)-6-(2-hydroxypropan-2-yl)-2H-indazol-5-yl)pyrrolo[1,2-b]pyridazine-7-carboxamide] |
| – | – | 97% | 1 nM | – | – | CC(C)(O)c1cc2nn([C@H]3CC[C@H](N4CCN(C(=O)N5CCN(c6cc(F)c([C@H]7CCC(=O)NC7=O)c(F)c6)CC5)CC4)CC3)cc2cc1NC(=O)c1ccc2cc(C#N)cnn12 [Example 225, 3-cyano-N-(2-((1r,4r)-4-(4-(4-(4-((R)-2,6-dioxopiperidin-3-yl)-3,5-difluorophenyl)piperazine-1-carbonyl)piperazin-1-yl)cyclohexyl)-6-(2-hydroxypropan-2-yl)-2H-indazol-5-yl)pyrrolo[1,2-b]pyridazine-7-carboxamide] |
| – | – | 96% | 2.3 nM | – | – | CC(C)(O)c1cc2nn(C3CCN([C@@H]4CCN(C(=O)C5CN(c6cc(F)c([C@H]7CCC(=O)NC7=O)c(F)c6)C5)CC4(F)F)CC3)cc2cc1NC(=O)c1ccc2cc(C#N)cnn12 [Example 288, 3-cyano-N-(2-((R)-1′-(1-(4-((R)-2,6-dioxopiperidin-3-yl)-3,5-difluorophenyl)azetidine-3-carbonyl)-3′,3′-difluoro-[1,4′-bipiperidin]-4-yl)-6-(2-hydroxypropan-2-yl)-2H-indazol-5-yl)pyrrolo[1,2-b]pyridazine-7-carboxamide] |
| – | – | 99% | 0.4 nM | – | – | CC(C)(O)c1cc2nn([C@H]3CC[C@H](N4CCN(C5CCN(c6cc(F)c([C@H]7CCC(=O)NC7=O)c(F)c6)CC5)CC4)CC3)cc2cc1NC(=O)c1cccc(C(F)(F)F)n1 [Example 99, N-(2-((1r,4r)-4-(4-(1-(4-((R)-2,6-dioxopiperidin-3-yl)-3,5-difluorophenyl)piperidin-4-yl)piperazin-1-yl)cyclohexyl)-6-(2-hydroxypropan-2-yl)-2H-indazol-5-yl)-6-(trifluoromethyl)picolinamide] |

Second part, the molecule before the results:

| SMILES | DC50 (Degradation (Karpas-299), comparison table, Linker Type A, read-out: Compound (Linker Type A) DC50) | Dmax (Degradation (Karpas-299), comparison table, Linker Type A, read-out: Compound (Linker Type A) Dmax (%)) | Dmax [1] | DC50 [2] | Dmax [3] | DC50 [4] |
| --- | --- | --- | --- | --- | --- | --- |
| O=C1CCN(c2ccc(N3CCC(N4CCN(C[C@H]5CC[C@H](n6cc(NC(=O)c7coc(-c8ccnc(NCC(F)(F)F)c8)n7)c(C(F)F)n6)CC5)CC4)CC3)cc2)C(=O)N1 [Example 2, N-(3-(difluoromethyl)-1-((1r,4r)-4-((4-(1-(4-(2,4-dioxotetrahydropyrimidin-1(2H)-yl)phenyl)piperidin-4-yl)piperazin-1-yl)methyl)cyclohexyl)-1H-pyrazol-4-yl)-2-(2-((2,2,2-trifluoroethyl)amino)pyridin-4-yl)oxazole-4-carboxamide] | > 10000 nM | 6.5% | 6.5% | > 10000 nM | – | – |
| CC(C)(O)c1cc2nn([C@H]3CC[C@H](N4CCN(C[C@H]5CCN(c6cc(F)c(N7CCC(=O)NC7=O)c(F)c6)C5)CC4)CC3)cc2cc1NC(=O)c1ccc2cc(C#N)cnn12 [Example 112, 3-cyano-N-(2-((1R,4r)-4-(4-(((R)-1-(4-(2,4-dioxotetrahydropyrimidin-1(2H)-yl)-3,5-difluorophenyl)pyrrolidin-3-yl)methyl)piperazin-1-yl)cyclohexyl)-6-(2-hydroxypropan-2-yl)-2H-indazol-5-yl)pyrrolo[1,2-b]pyridazine-7-carboxamide] | – | – | 96% | 8.6 nM | – | – |
| O=C1CC[C@H](c2c(F)cc(N3CC[C@@H](C(=O)N4CCN([C@H]5CC[C@H](n6cc(NC(=O)c7coc(-c8ccnc(NCC9CC9)c8)n7)c(C(F)F)n6)CC5)CC4)C3)cc2F)C(=O)N1 [Example 26, 2-(2-((cyclopropylmethyl)amino)pyridin-4-yl)-N-(3-(difluoromethyl)-1-((1R,4r)-4-(4-((R)-1-(4-((R)-2,6-dioxopiperidin-3-yl)-3,5-difluorophenyl)pyrrolidine-3-carbonyl)piperazin-1-yl)cyclohexyl)-1H-pyrazol-4-yl)oxazole-4-carboxamide] | – | – | 99% | 2.2 nM | – | – |
| CC(C)(O)c1cc2nn([C@H]3CC[C@H](N4CCN(C(=O)/C=C/C56CC7CC(CC(C7)C5)C6)CC4)CC3)cc2cc1NC(=O)c1ccc2cc(C#N)cnn12 [Example 441, N-(2-((1r,4r)-4-(4-((E)-3-(adamantan-1-yl)acryloyl)piperazin-1-yl)cyclohexyl)-6-(2-hydroxypropan-2-yl)-2H-indazol-5-yl)-3-cyanopyrrolo[1,2-b]pyridazine-7-carboxamide] | – | – | 4% | > 1000 nM | – | – |
| COc1cc2nn([C@H]3CC[C@H](N4CCN(C(=O)[C@@H]5CCN(c6cc(F)c(N7CCC(=O)NC7=O)c(F)c6)C5)CC4)CC3)cc2cc1NC(=O)c1cccc(C(F)(F)F)n1 [Example 177, N-(2-((1R,4r)-4-(4-((R)-1-(4-(2,4-dioxotetrahydropyrimidin-1(2H)-yl)-3,5-difluorophenyl)pyrrolidine-3-carbonyl)piperazin-1-yl)cyclohexyl)-6-methoxy-2H-indazol-5-yl)-6-(trifluoromethyl)picolinamide] | – | – | 97% | 7.8 nM | 94% | 44 nM |
| NC(=O)c1nn(-c2ccc(N3CCN(C(=O)C4CN(c5ccc(N6CCC(=O)NC6=O)cc5)C4)CC3)nc2)cc1NC(=O)c1coc(-c2ccnc(NCC(F)(F)F)c2)n1 [Example 28, N-(3-carbamoyl-1-(6-(4-(1-(4-(2,4-dioxotetrahydropyrimidin-1(2H)-yl)phenyl)azetidine-3-carbonyl)piperazin-1-yl)pyridin-3-yl)-1H-pyrazol-4-yl)-2-(2-((2,2,2-trifluoroethyl)amino)pyridin-4-yl)oxazole-4-carboxamide] | – | – | 96% | 2.5 nM | – | – |
| CC1(C)CN(c2cc(F)c([C@H]3CCC(=O)NC3=O)c(F)c2)C[C@@H]1C(=O)N1CCN([C@H]2CC[C@H](n3cc(NC(=O)c4coc(-c5ccnc(NCC(F)(F)F)c5)n4)c(C(F)F)n3)CC2)CC1 [Example 18, N-(3-(difluoromethyl)-1-((1R,4r)-4-(4-((R)-1-(4-((R)-2,6-dioxopiperidin-3-yl)-3,5-difluorophenyl)-4,4-dimethylpyrrolidine-3-carbonyl)piperazin-1-yl)cyclohexyl)-1H-pyrazol-4-yl)-2-(2-((2,2,2-trifluoroethyl)amino)pyridin-4-yl)oxazole-4-carboxamide] | – | – | 97% | 9.7 nM | 95% | 100 nM |
| CC(C)(O)c1cc2nn(C3CCN(C4CCN(C(=O)[C@@H]5CCN(c6ccc(N7CCC(=O)NC7=O)cc6)C5)CC4)CC3)cc2cc1NC(=O)c1cccc(C(F)(F)F)n1 [Example 162, (R)—N-(2-(1′-(1-(4-(2,4-dioxotetrahydropyrimidin-1(2H)-yl)phenyl)pyrrolidine-3-carbonyl)-[1,4′-bipiperidin]-4-yl)-6-(2-hydroxypropan-2-yl)-2H-indazol-5-yl)-6-(trifluoromethyl)picolinamide] | – | – | 96% | 5.7 nM | – | – |
